{"source": "patent US9035054B2", "about": "“Dinitroxide-type biradical compounds optimized for dynamic nuclear polarization (DNP)” (Universite D'Aix-Marseille, priority 2009, dated 2015)", "assay": "Solubility in water", "conditions": "compared with TOTAPOL", "data": [{"substance": "bis-TEMPO-bis-Ketal [bTbK]", "values": [{"measurement": "solubility in water", "value": "less good solubility in water"}]}]}
